Experimental data from EP4631959A2, “NOVEL MINIGASTRIN-DERIVED CHOLECYSTOKININ 2 RECEPTOR BINDING MOLECULES FOR IMAGING AND TARGETED RADIOTHERAPY” (priority 2022, dated 2024).
Starred links: 1 amine or outer side, 2 acyl side, 3 side chain; linkers in the order of their positions; H or OH if unused. Non-standard residues stand in square brackets, D forms with d. Residues, ends and D or L forms follow the SMILES beside them. *: point of attachment. X5 = O=C(O)CN1CCN(CC(=O)O)CCN([C@@H](CCC(=O)*)C(=O)O)CCN(CC(=O)O)CC1; X2 = O=C(O)CN1CCN(CC(=O)O)CCN([C@H](CCC(=O)*)C(=O)O)CCN(CC(=O)O)CC1; Benzoyl(4-SiFtBu2) = CC(C)(C)[Si](F)(c1ccc(C(=O)*)cc1)C(C)(C)C; DOTA = O=C(O)CN1CCN(CC(=O)O)CCN(CC(=O)*)CCN(CC(=O)O)CC1; NODAGA = O=C(O)CN1CCN(CC(=O)O)CCN(C(CCC(=O)*)C(=O)O)CC1; NOTA = O=C(O)CN1CCN(CC(=O)O)CCN(CC(=O)*)CC1; d(γGlu) = O=C(O)[C@@H](CCC(=O)[*:2])N[*:1]; 1Nal = N[C@@H](Cc1cccc2ccccc12)C(=O)O; NMeNle = CCCC[C@H](NC)C(=O)O; PEG4 = NCCOCCOCCOCCOCCC(=O)O; Nle = CCCC[C@H](N)C(=O)O; Dap = NC[C@H](N)C(=O)O

biological target: T1, CCK-2R (Rattus norvegicus, UniProt P30553); experiment: Determination of IC50: CCK-2R affinity on AR4-2J cells, competition with [^177Lu]Lu-DOTA-PP-F11N; assay type: binding; settings: not given
T1 construct: The CCK-2R expressing rat pancreatic tumor cells AR4-2J; host or cells: AR4-2J rat pancreatic tumor cells
T1 sequence (P30553 1-452): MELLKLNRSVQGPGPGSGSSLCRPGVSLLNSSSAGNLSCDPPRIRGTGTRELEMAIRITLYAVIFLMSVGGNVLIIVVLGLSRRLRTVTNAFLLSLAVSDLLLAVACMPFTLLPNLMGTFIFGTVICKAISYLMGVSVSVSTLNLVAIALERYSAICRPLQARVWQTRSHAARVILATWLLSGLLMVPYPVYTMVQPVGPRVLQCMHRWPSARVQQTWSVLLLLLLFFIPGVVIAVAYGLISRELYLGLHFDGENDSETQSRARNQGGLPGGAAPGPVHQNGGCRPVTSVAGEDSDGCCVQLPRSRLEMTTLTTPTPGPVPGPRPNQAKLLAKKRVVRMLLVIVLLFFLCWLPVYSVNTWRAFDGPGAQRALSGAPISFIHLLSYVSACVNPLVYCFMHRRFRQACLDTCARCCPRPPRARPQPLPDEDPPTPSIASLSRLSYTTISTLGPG
Protocol: AR4-2J cells were harvested 24 ± 2 h before the experiment and seeded in 24-well plates (2.0 × 10^5 cells in 1 mL/well). After removal of the nutrient medium (RPMI 1640, 5 mM L-Gln, 5 mL non-essential amino acids (100×), 10% FCS), the cells were washed once with 500 µL PBS. Thereafter, 200 µL nutrient medium (5% BSA, v/v) were added. Next, 25 µL per well of solutions containing either nutrient medium (5% BSA, v/v) as control or the respective compound in increasing concentration (10^-10 - 10^-4 M), were added with subsequent addition of 25 µL [^177Lu]Lu-DOTA-PP-F11N (0.3 pmol/well).
All experiments were performed in triplicate for each concentration. After 3 h incubation at 37 °C, the experiment was terminated by removal of the medium and consecutive rinsing with 300 µL PBS. The media of both steps were combined in one fraction and represent the amount of free radiolabeled reference. Afterwards, the cells were lysed with 300 µL of 1 M NaOH for at least 15 min and united with the 300 µL NaOH of the following washing step. Quantification of bound and free radiolabeled reference was accomplished in a γ-counter. IC50 determination for each conjugate was repeated twice.

Question: Which IC50 does the source give for `CCCC[C@H](NC(=O)[C@H](Cc1c[nH]c2ccccc12)NC(=O)CNC(=O)[C@H](Cc1ccc(O)cc1)NC(=O)[C@H](C)NC(=O)CC[C@@H](N)C(=O)O)C(=O)N[C@@H](CC(=O)O)C(=O)N[C@@H](CNC(=O)c1ccc([Si](F)(C(C)(C)C)C(C)(C)C)cc1)C(N)=O` [CCK-48, H-γ-glu-Ala-Tyr-Gly-Trp-Nle-Asp-Dap(SiFA)-NH2] ({d(γGlu)}-AYGW[Nle]D[Dap](Benzoyl(4-SiFtBu2))-NH2) here?
Answer: > 10000 nM

Question: With `CCCC[C@H](NC(=O)[C@H](Cc1c[nH]c2ccccc12)NC(=O)CNC(=O)[C@H](Cc1ccc(O)cc1)NC(=O)[C@H](C)NC(=O)[C@@H](CCC(=O)O)NC(=O)[C@@H](CCC(=O)O)NC(=O)[C@@H](CCC(=O)O)NC(=O)[C@@H](CCC(=O)O)NC(=O)[C@@H](CCC(=O)O)NC(=O)[C@@H](CCC(=O)O)NC(=O)CN1CCN(CC(=O)O)CCN(CC(=O)O)CCN(CC(=O)O)CC1)C(=O)N[C@@H](CC(=O)O)C(=O)N[C@@H](Cc1ccccc1)C(N)=O` [DOTA-PP-F11N, DOTA-glu^1-glu^2-glu^3-glu^4-glu^5-glu^6-Ala^7-Tyr^8-Gly^9-Trp^10-Nle^11-Asp^12-Phe^13-NH2, reference compound] as the compound, how does the IC50 read?
Answer: 12.8 ± 2.8 nM

same assay, conditions: AR4-2J cells; [^19F]AlF-complexated; read-out: IC50 [nM] (n = 3), ^natAlF-labeled

Question: Which IC50 does the source give for `CCCC[C@@H](C(=O)N[C@@H](CC(=O)O)C(=O)N[C@@H](Cc1cccc2ccccc12)C(N)=O)N(C)C(=O)[C@H](Cc1c[nH]c2ccccc12)NC(=O)CCOCCOCCOCCOCCNC(=O)CC[C@@H](NC(=O)CN1CCN(CC(=O)O)CCN(CC(=O)O)CC1)C(=O)O` [NOTA-CCK-66, NOTA-γ-glu-(PEG)3-Trp-(N-Me)Nle-Asp-1-Nal-NH2] ({NOTA-d(γGlu)-PEG4}-W[NMeNle]D[1Nal]-NH2) here?
Answer: 10.4 ± 0.9 nM

same assay, conditions: AR4-2J cells; ^natGa-labeled; read-out: IC50 [nM] (n = 3), ^natGa-labeled

Question: `CCCC[C@@H](C(=O)N[C@@H](CC(=O)O)C(=O)N[C@@H](Cc1cccc2ccccc12)C(N)=O)N(C)C(=O)[C@H](Cc1c[nH]c2ccccc12)NC(=O)CCOCCOCCOCCOCCNC(=O)CC[C@@H](NC(=O)CC[C@H](C(=O)O)N1CCN(CC(=O)O)CCN(CC(=O)O)CCN(CC(=O)O)CC1)C(=O)O` [(R)-DOTAGA-CCK-66, (R)-DOTAGA-γ-glu-(PEG)3-Trp-(N-Me)Nle-Asp-1-Nal-NH2] ({X2-d(γGlu)-PEG4}-W[NMeNle]D[1Nal]-NH2) was tested. Which IC50 did it give?
Answer: 16 ± 2.1 nM

Question: `CCCC[C@@H](C(=O)N[C@@H](CC(=O)O)C(=O)N[C@@H](Cc1cccc2ccccc12)C(N)=O)N(C)C(=O)[C@H](Cc1c[nH]c2ccccc12)NC(=O)CCOCCOCCOCCOCCNC(=O)CC[C@@H](NC(=O)CC[C@@H](C(=O)O)N1CCN(CC(=O)O)CCN(CC(=O)O)CCN(CC(=O)O)CC1)C(=O)O` [(S)-DOTAGA-CCK-66, (S)-DOTAGA-γ-glu-(PEG)3-Trp-(N-Me)Nle-Asp-1-Nal-NH2] ({X5-d(γGlu)-PEG4}-W[NMeNle]D[1Nal]-NH2) was tested. Which IC50 did it give?
Answer: 17.9 ± 2.7 nM

Question: For `CCCC[C@@H](C(=O)N[C@@H](CC(=O)O)C(=O)N[C@@H](Cc1cccc2ccccc12)C(N)=O)N(C)C(=O)[C@H](Cc1c[nH]c2ccccc12)NC(=O)CCOCCOCCOCCOCCNC(=O)CC[C@@H](NC(=O)CCC(C(=O)O)N1CCN(CC(=O)O)CCN(CC(=O)O)CC1)C(=O)O` (stereo partly drawn) [NODAGA-CCK-66, NODAGA-γ-glu-(PEG)3-Trp-(N-Me)Nle-Asp-1-Nal-NH2] ({NODAGA-d(γGlu)-PEG4}-W[NMeNle]D[1Nal]-NH2), which IC50 is on record?
Answer: 4.9 ± 0.7 nM

Question: How did the IC50 turn out when `CCCC[C@@H](C(=O)N[C@@H](CC(=O)O)C(=O)N[C@@H](Cc1cccc2ccccc12)C(N)=O)N(C)C(=O)[C@H](Cc1c[nH]c2ccccc12)NC(=O)CCOCCOCCOCCOCCNC(=O)CC[C@@H](NC(=O)CN1CCN(CC(=O)O)CCN(CC(=O)O)CC1)C(=O)O` [NOTA-CCK-66, NOTA-γ-glu-(PEG)3-Trp-(N-Me)Nle-Asp-1-Nal-NH2] ({NOTA-d(γGlu)-PEG4}-W[NMeNle]D[1Nal]-NH2) was run?
Answer: 9.7 ± 1 nM

same assay, conditions: AR4-2J cells; ^natLu-labeled; read-out: IC50 [nM] (n = 3), ^natLu-labeled

Question: For `CCCC[C@@H](C(=O)N[C@@H](CC(=O)O)C(=O)N[C@@H](Cc1cccc2ccccc12)C(N)=O)N(C)C(=O)[C@H](Cc1c[nH]c2ccccc12)NC(=O)CNC(=O)CNC(=O)CNC(=O)CNC(=O)CN1CCN(CC(=O)O)CCN(CC(=O)O)CCN(CC(=O)O)CC1` [DOTA-CCK-55, DOTA-(Gly)4-Trp-(N-Me)Nle-Asp-1-Nal-NH2] ({DOTA}-GGGGW[NMeNle]D[1Nal]-NH2), which IC50 is on record?
Answer: 8.5 ± 1.2 nM

Question: Which IC50 does the source give for `CCCC[C@@H](C(=O)N[C@@H](CC(=O)O)C(=O)N[C@@H](Cc1cccc2ccccc12)C(N)=O)N(C)C(=O)[C@H](Cc1c[nH]c2ccccc12)NC(=O)CNC(=O)CN1CCN(CC(=O)O)CCN(CC(=O)O)CCN(CC(=O)O)CC1` [DOTA-CCK-58, DOTA-Gly-Trp-(N-Me)Nle-Asp-1-Nal-NH2] ({DOTA}-GW[NMeNle]D[1Nal]-NH2) here?
Answer: 98.9 ± 8.4 nM

Question: `CCCC[C@@H](C(=O)N[C@@H](CC(=O)O)C(=O)N[C@@H](Cc1cccc2ccccc12)C(N)=O)N(C)C(=O)[C@H](Cc1c[nH]c2ccccc12)NC(=O)CNC(=O)CNC(=O)[C@H](C)NC(=O)CNC(=O)CN1CCN(CC(=O)O)CCN(CC(=O)O)CCN(CC(=O)O)CC1` [DOTA-CCK-61, DOTA-Gly-Ala-(Gly)2-Trp-(N-Me)Nle-Asp-1-Nal-NH2] ({DOTA}-GAGGW[NMeNle]D[1Nal]-NH2) was tested. Which IC50 did it give?
Answer: 9.7 ± 1.7 nM
